One compound from patent US20240041764A1, “Sustained-Release Oral Fosamprenavir Formulation for Treatment of Reflux” (The Medical College of Wisconsin, Inc., priority 2022, published 2024) can be followed below.

In the experiment the target is T1, porcine pepsin A (Sus scrofa, UniProt P00791).
T1 construct: purchased Worthington Biochemical Corporation
The experiment is described as follows: competitive binding assay, fluorescence polarization with pepstatin-Alexa647. The settings on record: 100 nM probe, 0.03 U/ul porcine pepsin A, 37.5% DMSO, 0.1 M HCl pH 1. The protocol: To examine whether HIV protease inhibitors bound and inhibited pepsin, we developed assays based on fluorescence polarization which measures size-dependent molecular rotation thereby permitting detection of degradation, association and dissociation events^80. A competitive binding assay was designed employing pepstatin, an inhibitor of sub-nanomolar affinity^81. Pepstatin-Alexa647 was synthesized by dissolving 1 mg pepstatin A (Sigma-Aldrich) in a 50:50 mixture of dimethylformamide (DMF) and dimethylsulfoxide (DMS) followed by the addition of N,N,N′,N′-Tetramethyl-O—(N-succinimidyl)uronium tetrafluoroborate (0.6 mg) and trimethylamine (10 μL) DMF. The mixture was stirred for 1 hour, after which 1 mg Alexa Fluor 647 Cadaverine, Disodium Salt (ThermoFisher Scientific) was added. After 2 hours, the solvents were evaporated under high vacuum (35° C.) and residue partially dissolved in 10% methanol and transferred onto a C18 cartridge (Waters Corporation, Milford, MA). Increasing percentages of methanol were used for the elution. Pepstatin-Alexa647 eluted at 45% methanol. An enzymatic inhibition assay was designed using casein substrate.^82 Bovine alpha casein (Sigma-Aldrich, St. Louis, MO) was labeled with Alexa Fluor 647 Carboxylic Acid, Succinimidyl Ester (ThermoFisher Scientific, Waltham, MA) as described.^82 Briefly, the two were combined at 2.5 ug/mg label to protein ratio in 0.1M sodium bicarbonate for 15 minutes and labeled casein was separated from unbound label in a Sephadex G-25 (Sigma-Aldrich) column comprised of 90×5 mm packed beads in a glass Pasteur pipette, eluted with dPBS pH7.4 (ThermoFisher Scientific). The fast-moving band (casein-bound fluorophore) was collected in ˜0.4 ml volume. […]
Assays were optimized using ranges of 0.3-1000 μM unlabeled pepstatin, 100-500 nM pepstatin-Alexa647 or casein-Alexa647 probe, 0.003-3 U/μl porcine pepsin (Worthington Biochemical Corporation, Lakewood, NJ), and 5-37.5% DMSO (HIV protease inhibitor diluent) in 0.1 M HCl, pH 1 with 0.01% v/v Tween-20 in 20 μl volumes in 384-well black optical plates (Nunc, Roskilde, DK) and read on a BioTek Cytation 5 (BioTek Instruments, Winooski, VT) with far red FP filter cube (excitation/emission 620/680 nm). […] Assays were performed twice with triplicate reactions read for five minutes and mean mP plotted against probe concentration (binding assay) or read at <2 minutes intervals over 30 minutes with mean mP of plotted over time (activity assay). Half maximal inhibitory concentration (IC50) of inhibitors were calculated from kinetic traces analyzed using an online tool (https://icekat.herokuapp.com/icekat)^83. mP was normalized to blank (absent inhibitor) to derive percent bound or activity.

T1 sequence (P00791 60-385): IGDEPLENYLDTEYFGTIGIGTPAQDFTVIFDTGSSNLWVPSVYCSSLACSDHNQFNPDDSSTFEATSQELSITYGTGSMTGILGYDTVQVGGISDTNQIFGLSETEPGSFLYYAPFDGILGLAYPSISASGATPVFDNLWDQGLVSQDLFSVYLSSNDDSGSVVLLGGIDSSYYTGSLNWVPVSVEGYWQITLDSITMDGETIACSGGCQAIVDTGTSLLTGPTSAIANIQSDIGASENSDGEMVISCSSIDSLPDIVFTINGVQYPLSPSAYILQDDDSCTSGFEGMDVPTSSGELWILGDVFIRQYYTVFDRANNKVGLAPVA

Consider `CC(C)CN(C[C@@H](O)[C@H](Cc1ccccc1)NC(=O)O[C@H]1CO[C@H]2OCC[C@H]21)S(=O)(=O)c1ccc(N)cc1` [darunavir, [(3aS,4R,6aR)-2,3,3a,4,5,6a-hexahydrofuro[2,3-b]furan-4-yl]N-[(2S,3R)-4-[(4-aminophenyl)sulfonyl-(2-methylpropyl)amino]-3-hydroxy-1-phenylbutan-2-yl]carbamate], for which the “bound pepsin (competitive binding)” value is listed as “low micromolar”.
